Results taken from patent US9051280B2, “Tetraline and indane derivatives, pharmaceutical compositions containing them, and their use in therapy” (AbbVie Deutschland GmbH & Co. KG, priority 2010, dated 2015).

molecular target: human GlyT1c transporter (Homo sapiens (Human), UniProt P48067); assay: Radioligand binding assay using recombinant CHO cell membranes expressing human GlyT1; settings: read-out: radioligand binding Kiapp
Description: Biological Testing • 1. [^3H]-Glycine uptake into recombinant CHO cells expressing human GlyT1: Human GlyT1c expressing recombinant hGlyT1c—5_CHO cells were plated at 20,000 cells per well in 96 well Cytostar-T scintillation microplates (Amersham Biosciences) and cultured to sub-confluency for 24 h. For glycine uptake assays the culture medium was aspirated and the cells were washed once with 100 μl HBSS (Gibco BRL, #14025-050) with 5 mM L-Alanine (Merck #1007). 80 μl HBSS buffer were added, followed by 10 μl inhibitor or vehicle (10% DMSO) and 10 μl [^3H]-glycine (TRK71, Amersham Biosciences) to a final concentration of 200 nM for initiation of glycine uptake. The plates were placed in a Wallac Microbeta (PerkinElmer) and continuously counted by solid phase scintillation spectrometry during up to 3 hours. Nonspecific uptake was determined in the presence of 10 μM Org24598. IC50 calculations were made by four-parametric logistic nonlinear regression analysis (GraphPad Prism) using determinations within the range of linear increase of [^3H]-glycine incorporation between 60 and 120 min. • 2. Radioligand binding assays using recombinant CHO cell membranes expressing human GlyT1:
Radioligand binding to human GlyT1c transporter-expressing membranes was determined as described in Mezler et al., Molecular Pharmacology 74:1705-1715, 2008.

Chain of human GlyT1c transporter (P48067 whole entry): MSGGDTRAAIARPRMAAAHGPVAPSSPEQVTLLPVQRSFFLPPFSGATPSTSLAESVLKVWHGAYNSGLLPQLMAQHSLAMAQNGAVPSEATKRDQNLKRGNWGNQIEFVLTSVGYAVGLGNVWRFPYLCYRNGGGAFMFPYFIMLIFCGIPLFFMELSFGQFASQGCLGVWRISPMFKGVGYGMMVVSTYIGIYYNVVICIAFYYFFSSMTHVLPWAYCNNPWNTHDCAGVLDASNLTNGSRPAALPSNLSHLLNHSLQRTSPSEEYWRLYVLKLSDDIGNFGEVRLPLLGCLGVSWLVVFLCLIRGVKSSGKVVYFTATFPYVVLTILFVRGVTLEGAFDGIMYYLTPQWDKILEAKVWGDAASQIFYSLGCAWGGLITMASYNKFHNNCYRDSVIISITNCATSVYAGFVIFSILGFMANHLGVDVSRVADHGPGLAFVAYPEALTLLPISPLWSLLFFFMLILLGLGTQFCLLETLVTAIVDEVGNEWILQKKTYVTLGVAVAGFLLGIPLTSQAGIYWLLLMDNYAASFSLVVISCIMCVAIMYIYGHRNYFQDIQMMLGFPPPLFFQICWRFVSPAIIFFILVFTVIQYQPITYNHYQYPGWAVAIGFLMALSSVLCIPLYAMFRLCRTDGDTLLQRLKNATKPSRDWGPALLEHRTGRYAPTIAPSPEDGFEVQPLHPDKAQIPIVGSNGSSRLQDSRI

Row | SMILES | Ki [nM]
1 | CCS(=O)(=O)NCCOc1ccc2c(c1)[C@H](Cc1ccccc1)[C@H](CN1CCC1)CC2 (stereo in doubt) [Example 200, Ethanesulfonic acid [2-(7-azetidin-1-ylmethyl-8-benzyl-5,6,7,8-tetrahydro-naphthalen-2-yloxy)-ethyl]-amide] | ≤ 500
2 | Cn1cnc(S(=O)(=O)NCCOc2ccc3c(c2)[C@H](Cc2ccccc2)[C@H](CN2CCC2)CC3)c1 (stereo in doubt) [Example 202, 1-Methyl-1H-imidazole-4-sulfonic acid [2-(7-azetidin-1-ylmethyl-8-benzyl-5,6,7,8-tetrahydro-naphthalen-2-yloxy)-ethyl]-amide] | ≤ 100
3 | O=S(=O)(CC1CC1)NCCOc1ccc2c(c1)[C@H](Cc1ccccc1)[C@H](CN1CCC1)CC2 (stereo in doubt) [Example 201, N-[2-(7-Azetidin-1-ylmethyl-8-benzyl-5,6,7,8-tetrahydro-naphthalen-2-yloxy)-ethyl]-C-cyclopropyl-methanesulfonamide] | ≤ 100
4 | CCS(=O)(=O)NCCOc1ccc2c(c1)[C@H](Cc1ccccc1)[C@H](CN)CC2 (stereo in doubt) [Example 195, Ethanesulfonic acid [2-(7-aminomethyl-8-benzyl-5,6,7,8-tetrahydro-naphthalen-2-yloxy)-ethyl]-amide] | ≤ 100
5 | Cn1cnc(S(=O)(=O)NCc2ccc3c(c2)[C@H](Cc2ccccc2)[C@H](CN2CCC2)CC3)c1 (stereo in doubt) [Example 203, 1-Methyl-1H-imidazole-4-sulfonic acid (7-azetidin-1-ylmethyl-8-benzyl-5,6,7,8-tetrahydro-naphthalen-2-ylmethyl)-amide] | ≤ 100

Next, values leading:

Row | Ki [nM] | SMILES
6 | ≤ 100 | CCS(=O)(=O)NCCOc1ccc2c(c1)[C@H](Cc1ccccc1)[C@H](CNC)CC2 (stereo in doubt) [Example 198, Ethanesulfonic acid [2-(8-benzyl-7-methylaminomethyl-5,6,7,8-tetrahydro-naphthalen-2-yloxy)-ethyl]-amide]
7 | ≤ 100 | CNC[C@@H]1CCc2ccc(OCCNS(=O)(=O)CC3CC3)cc2[C@@H]1Cc1ccccc1 (stereo in doubt) [Example 199, N-[2-(8-Benzyl-7-methylaminomethyl-5,6,7,8-tetrahydro-naphthalen-2-yloxy)-ethyl]-C-cyclopropyl-methanesulfonamide]
8 | ≤ 100 | NC[C@@H]1CCc2ccc(OCCNS(=O)(=O)CC3CC3)cc2[C@@H]1Cc1ccccc1 (stereo in doubt) [Example 196, N-[2-(7-Aminomethyl-8-benzyl-5,6,7,8-tetrahydro-naphthalen-2-yloxy)-ethyl]-C-cyclopropyl-methanesulfonamide]
